Source: US20190174768A1 (priority 2016, published 2019)

Columns and labels:
[1] = tested on: Venturia inaequalis Strain EUB04; test: In planta test on apple plantlets against apple scab; assay type: in vivo; conditions: reference fungicide mode, D9 to D21
Experimental: The in planta tests on apple plantlets were carried out according to the following protocol:
2 modes tested: spraying of extract D at 5 g/L 2 hours before inoculation (ExtractBefore) and spraying of extract D at 5 g/L 3 hours after inoculation (ExtractAfter)
3 control modes: • 2 untreated control modes (spraying of water on the same dates as the product) (WaterBefore and WaterAfter) • 1 mode with a reference fungicide (captan)
Artificial inoculation of plants with a Venturia inaequalis strain at 100 000 spores/ml.
Scab symptoms noted at 4 dates post-inoculation (visual estimate of % scab area)
Biological material: • Plantlets derived from roughly 3-week-old apple seedlings in soil balls—from pips taken from the Gala variety (apples harvested in an orchard planted with Gala and Elstar) • Venturia inaequalis spores on cellophane—Strain EUB04
3 boxes of 12 plantlets for each mode
D+9, D+14, D+17, D+21: Notation of percentage of leaf area affected (from 0 to 100% in 10% increments)
Since the normality and homogeneity conditions of the variances of the residues were not met, a non-parametric Kruskal-Wallis test was performed. This test being significant, the medians of the different modes were compared pairwise using the Nemenyi test based on Tukey's distance. These analyses were carried out with the R software (version 3.1.2).

F. graminearum = assay type: cell-based, Fusarium graminearum

| SMILES | scab development [1] | antifungal activity against F. graminearum (F. graminearum) |
| --- | --- | --- |
| O=C1C2CC=CCC2C(=O)N1SC(Cl)(Cl)Cl (centres unmarked) [captan] | no scab development was observed | – |
| C=C/C=C/CC/C=C/C=C/C=C/CC/C=C/[C@H](O)[C@H](O)[C@@H]1O[C@@H]([C@H](O)[C@H](O)C(=C)CC[C@@H](O)[C@H]2C[C@@H](O)[C@@H](O)[C@H]([C@@H](O)[C@H](O)/C=C(\C)CCC(O)CC(O)C(O)C(C)CC(O)C(O)CC(C)CCC(O)CC(=O)CC(O)CCCC(O)CCCCC(O)CO)O2)C[C@@H](O)[C@H]1O (some centres unmarked) [amphidinol 18] | – | has antifungal activity against F. graminearum |
